Experimental data reported in ChEMBL document CHEMBL3885881, “DrugMatrix”.

Organism: Rattus norvegicus
Experiment: DrugMatrix - Regimen: Daily Repeat
Assay type: toxicity, organism-based, Sprague-Dawley
Design: regimen Daily Repeat, gender Male, age 6-8 weeks
Details: in vivo, po, 500 mg/kg, route oral GAVAGE, dose level Low, […]; for ABSOLUTE BASOPHIL / ABSOLUTE EOSINOPHIL / ABSOLUTE LYMPHOCYTE / ABSOLUTE MONOCYTE / ABSOLUTE SEGMENTED NEUTROPHIL / BASOPHIL / EOSINOPHIL / ERYTHROCYTE COUNT / HEMATOCRIT / HEMOGLOBIN / LEUKOCYTE COUNT / LYMPHOCYTE / MEAN CORPUSCULAR HEMOGLOBIN / MEAN CORPUSCULAR HEMOGLOBIN CONCENTRATION / MEAN CORPUSCULAR VOLUME / MONOCYTE / NEUTROPHIL / NUCLEATED RED BLOOD CELLS / PLATELET COUNT: tissue Blood; for ALANINE AMINOTRANSFERASE / ALBUMIN / ALKALINE PHOSPHATASE / ASPARTATE AMINOTRANSFERASE / BLOOD UREA NITROGEN / CARBON DIOXIDE / CHLORIDE / CHOLESTEROL / CREATINE PHOSPHOKINASE / CREATININE / GLUCOSE / LACTATE DEHYDROGENASE / LIPASE / PHOSPHORUS / POTASSIUM / SODIUM / TOTAL BILIRUBIN / TOTAL PROTEIN / URIC ACID: tissue Plasma

CCOC(=O)c1ccc(N)cc1 [BENZOCAINE]
ABSOLUTE BASOPHIL (72 h, time 3 day): 0 CELLS/uL | ABSOLUTE EOSINOPHIL (72 h, time 3 day): 229 CELLS/uL | ABSOLUTE LYMPHOCYTE (72 h, time 3 day): 17082.33 CELLS/uL | ABSOLUTE MONOCYTE (72 h, time 3 day): 210.67 CELLS/uL | ABSOLUTE SEGMENTED NEUTROPHIL (72 h, time 3 day): 1644.67 CELLS/uL | BASOPHIL (72 h, time 3 day): 0% | EOSINOPHIL (72 h, time 3 day): 1% | ERYTHROCYTE COUNT (72 h, time 3 day): 5.35 x10E6/uL | HEMATOCRIT (72 h, time 3 day): 35.4% | HEMOGLOBIN (72 h, time 3 day): 14.2 G/DL | LEUKOCYTE COUNT (72 h, time 3 day): 19.17 x10E3/uL | LYMPHOCYTE (72 h, time 3 day): 89.33% | MEAN CORPUSCULAR HEMOGLOBIN (72 h, time 3 day): 26.5 pg | MEAN CORPUSCULAR HEMOGLOBIN CONCENTRATION (72 h, time 3 day): 40.13 G/DL | MEAN CORPUSCULAR VOLUME (72 h, time 3 day): 66.13 fL | MONOCYTE (72 h, time 3 day): 1% | NEUTROPHIL (72 h, time 3 day): 8.67% | NUCLEATED RED BLOOD CELLS (72 h, time 3 day): 0 /100WBC | PLATELET COUNT (72 h, time 3 day): 1441 x10E3/uL | ALANINE AMINOTRANSFERASE (72 h, time 3 day): 64 u/L | ALBUMIN (72 h, time 3 day): 4.2 G/DL | ALKALINE PHOSPHATASE (72 h, time 3 day): 444.67 u/L | ASPARTATE AMINOTRANSFERASE (72 h, time 3 day): 108.33 u/L | BLOOD UREA NITROGEN (72 h, time 3 day): 9.67 mg/dL | CARBON DIOXIDE (72 h, time 3 day): 29 mmol/L | CHLORIDE (72 h, time 3 day): 102.33 MEQ/L | CHOLESTEROL (72 h, time 3 day): 59.33 mg/dL | CREATINE PHOSPHOKINASE (72 h, time 3 day): 648.33 u/L | CREATININE (72 h, time 3 day): 0.35 mg/dL | GLUCOSE (72 h, time 3 day): 175.67 mg/dL | LACTATE DEHYDROGENASE (72 h, time 3 day): 218.67 u/L | LIPASE (72 h, time 3 day): 12.33 u/L | PHOSPHORUS (72 h, time 3 day): 12.33 mg/dL | POTASSIUM (72 h, time 3 day): 6.58 MEQ/L | SODIUM (72 h, time 3 day): 144.73 MEQ/L | TOTAL BILIRUBIN (72 h, time 3 day): 0.2 mg/dL | TOTAL PROTEIN (72 h, time 3 day): 5.7 G/DL | URIC ACID (72 h, time 3 day): 1.73 mg/dL | ABSOLUTE BASOPHIL (120 h, time 5 day): 0 CELLS/uL | ABSOLUTE EOSINOPHIL (120 h, time 5 day): 0 CELLS/uL | ABSOLUTE LYMPHOCYTE (120 h, time 5 day): 16058.33 CELLS/uL | ABSOLUTE MONOCYTE (120 h, time 5 day): 107.33 CELLS/uL | ABSOLUTE SEGMENTED NEUTROPHIL (120 h, time 5 day): 2201 CELLS/uL | BASOPHIL (120 h, time 5 day): 0% | EOSINOPHIL (120 h, time 5 day): 0% | ERYTHROCYTE COUNT (120 h, time 5 day): 4.82 x10E6/uL | HEMATOCRIT (120 h, time 5 day): 32.4% | HEMOGLOBIN (120 h, time 5 day): 13.2 G/DL | LEUKOCYTE COUNT (120 h, time 5 day): 18.37 x10E3/uL | LYMPHOCYTE (120 h, time 5 day): 87% | MEAN CORPUSCULAR HEMOGLOBIN (120 h, time 5 day): 27.47 pg | MEAN CORPUSCULAR HEMOGLOBIN CONCENTRATION (120 h, time 5 day): 40.77 G/DL | MEAN CORPUSCULAR VOLUME (120 h, time 5 day): 67.4 fL | MONOCYTE (120 h, time 5 day): 0.67% | NEUTROPHIL (120 h, time 5 day): 12.33% | NUCLEATED RED BLOOD CELLS (120 h, time 5 day): 0.67 /100WBC | PLATELET COUNT (120 h, time 5 day): 1368 x10E3/uL | ALANINE AMINOTRANSFERASE (120 h, time 5 day): 53.67 u/L | ALBUMIN (120 h, time 5 day): 4.13 G/DL | ALKALINE PHOSPHATASE (120 h, time 5 day): 386 u/L | ASPARTATE AMINOTRANSFERASE (120 h, time 5 day): 98 u/L | BLOOD UREA NITROGEN (120 h, time 5 day): 13 mg/dL | CARBON DIOXIDE (120 h, time 5 day): 29 mmol/L | CHLORIDE (120 h, time 5 day): 104.33 MEQ/L | CHOLESTEROL (120 h, time 5 day): 48.33 mg/dL | CREATINE PHOSPHOKINASE (120 h, time 5 day): 364.67 u/L | CREATININE (120 h, time 5 day): 0.17 mg/dL | GLUCOSE (120 h, time 5 day): 150 mg/dL | LACTATE DEHYDROGENASE (120 h, time 5 day): 646.67 u/L | LIPASE (120 h, time 5 day): 11 u/L | PHOSPHORUS (120 h, time 5 day): 10.6 mg/dL | POTASSIUM (120 h, time 5 day): 6.6 MEQ/L | SODIUM (120 h, time 5 day): 143.27 MEQ/L | TOTAL BILIRUBIN (120 h, time 5 day): 0.3 mg/dL | TOTAL PROTEIN (120 h, time 5 day): 5.77 G/DL | URIC ACID (120 h, time 5 day): 1.63 mg/dL
